Earlier results, collected in patent US20240278494A1, “THREE-DIMENSIONAL ADDITIVE FABRICATION WITH SUPPORT FLUID” (GEORGIA TECH RESEARCH CORPORATION, priority 2021, published 2024).
Like-named read-outs stand apart in the source and are kept apart here.

Columns and labels:
[1] = Table 2, resin additives
[2] = for ρ: Table 2, resin additives; for Density: Table 1, acrylate monomers
[3] = not given; remark: listed apart in the source

| Compound | Viscosity (Table 2, resin additives) [cP] | γ (surface tension) [1] [mN/m] | ρ [2] [g/mL] | Viscosity (Table 1, acrylate monomers) [cP] | Water solubility ([3]; Table 1, acrylate monomers) [mg/mL] | Density [2] [g/mL] | Water solubility ([3]; Table 2, resin additives) [mg/mL] |
| --- | --- | --- | --- | --- | --- | --- | --- |
| OCCCO [1,3-Propanediol] | 52 | 46.2 | 1.0597 | – | – | – | – |
| C=CC(=O)OCCCC [BA, Butyl Acrylate] | 0.92 | 20 | 0.9 | – | – | – | – |
| C1CCC2CCCCC2C1 (centres unmarked) [Decalin, Decahydronaphthalene] | 1.788 | – | 0.896 | – | – | – | – |
| C=CC(=O)OCC(CC)CCCC (centres unmarked) [EHA, 2-Ethylhexyl acrylate] | 1.7 | 26 | 0.885 | – | – | – | – |
| C=CC(=O)OCCCCCCOC(=O)C=C [HDDA, 1,6-Hexanediol diacrylate] | – | – | – | 9 | 0.10 | 1.02 | – |
| C=CC(=O)OC [MA, Methyl Acrylate] | 0.6 | – | 0.95 | – | – | – | 50.00 |
| C=C(C)C(=O)OC [MMA, Methyl Methacrylate] | 0.6 | 31.4 | 0.94 | – | – | – | – |
| CCCCCCCC/C=C\CCCCCCCC(=O)O [OA, Oleic Acid] | 27.64 | 31.92 | 0.895 | – | – | – | <0.1 |
| COCC(C)OC(C)=O (centres unmarked) [PGMEA, Propylene glycol methyl ether acetate] | 0.8 | 26.9 | 0.962 | – | – | – | 19.80 |
| C=C(C)C(=O)OCCOCCOCCOC(=O)C(=C)C [TEGDMA, Triethylene glycol dimethacrylate] | – | – | – | 50 | 2.41 | 1.072 | – |
| CCCCOC(C)=O [n-Butyl Acetate] | 1.1002 | 25.3 | 0.8825 | – | – | – | 0.68 |
| Dimethylbenzene [Xylene] | 0.812 | 28 | 0.865 | – | – | – | <0.10 |
| Urethane dimethacrylate [UDMA] | – | – | – | 6.75 | – | 1.129 | – |
